Several values for one entry are separate records, joined by “and”; a condition that tells them apart may be missing. Identical values can stand only once. Entries after “also recorded” stand apart in the source; their conditions may differ.
Tests used:
[1] = system: naloxone precipitated oxycodone withdrawal in C57BL/6 mice; experiment: Naloxone precipitated oxycodone withdrawal-induced jumping, two salt forms (Example 4, Experiment 2.1); format: in vivo, mouse; details: 7.3 mg/kg FBE i.p.; for Oxycodone withdrawal-induced jumping vs OXY_VEH: CMPD1-PO4 p<0.01, CMPD1-2HCL p<0.001; for Withdrawal-induced jumping, comparison of the two salt forms: OXY_CMPD1-PO4 vs OXY_2 HCL p=0.901
[2] = system: naloxone precipitated oxycodone withdrawal in C57BL/6 mice; experiment: Gastrointestinal symptoms of opioid withdrawal: fecal boli and diarrhea (Example 3); format: in vivo, mouse; details: 10 mg/kg i.p.
Procedure: In this example, the ability of CMPD1-2HCL to inhibit the gastrointestinal symptoms of opioid withdrawal was assessed using a murine model.
Adult male C57BL/6 mice ([…]) were allocated to one of four conditions (n=10 per condition):
Mice in the oxycodone conditions (OXY) received i.p. injections of oxycodone for 5 days according to the schedule and doses set out in Table 7. The morning and afternoon doses were separated by 7 h. Mice in the vehicle condition received injections of vehicle saline instead of oxycodone. One-hour-and-forty-five minutes after the morning injection on day 5, mice were administered their i.p. dose of CMPD1-2HCL (10 mg/kg). Fifteen minutes later they received an i.p. injection of 10 mg/kg naloxone (oxycodone groups) or saline (vehicle group), and proceeded immediately to testing.
Testing involved placing mice individually into a 20 (l)×20 (w)×30 (h) cm arena for 30 min. The number of fecal boli were counted at the end of the session and whether or not the mouse had diarrhea.
Data were analysed using ANOVA and planned contrasts for fecal boli and Fisher's exact test for diarrhea.

[3] = system: naloxone precipitated oxycodone withdrawal in C57BL/6 mice; experiment: Naloxone precipitated oxycodone withdrawal: jumping and paw tremors (Experiment 1.2); format: in vivo, mouse; details: for Number of jumps for each mouse in the 30 min test session / Total duration of paw tremors for each mouse in the 30 minute test session: oxycodone condition mice, individual mice
Procedure: Adult male C57BL/6 mice (N=40) were allocated to one of five conditions (n=8 per condition):
Mice in the oxycodone conditions received i.p. injections of oxycodone for 5 days according to the schedule and doses set out in Table 1. The morning and afternoon doses were separated by 7 h. Mice in the vehicle condition received injections of vehicle saline instead of oxycodone. One-hour-and-forty-five minutes after the morning injection on day 5, mice were administered their i.p. dose of CMPD1-2HCL. Fifteen minutes later they received an i.p. injection of 10 mg/kg naloxone (oxycodone groups) or saline (vehicle group), and proceeded immediately to testing.
Testing involved placing mice individually into a 20 (l)×20 (w)×30 (h) cm arena for 30 min. Sessions were captured via a side view high speed (120 fps), high resolution (4K) camera. Number of jumps and total duration of paw tremors were scored from the videos by an experienced experimenter blind to conditions.
Data were analysed by SPSS using oneway ANOVA and planned contrasts.

C57BL/6 mice [4] = experiment: Open field locomotor activity test (Experiment 1.1); format: in vivo, mouse; details: 5 mg/kg i.p.; time post dose 75-80; individual mice 7-12
[5] = system: c-fos protein expression in the brain; experiment: Naloxone-precipitated opioid withdrawal-induced c-fos protein expression in the brain (Example 2); format: in vivo, mouse; details: 10 mg/kg i.p.; 8 brain regions; 75 minutes after naloxone
Procedure: In this example, the ability of Compound 1 to inhibit naloxone-precipitated opioid withdrawal-induced c-fos protein expression in the brain was studied. C-fos is a protein marker of neural activation. Compound 1 was administered in dihydrochloride salt form (CMPD1-2HCL).
N=40 male C57BL/6 mice were assigned to one of the following four conditions:
Mice in the oxycodone (OXY) conditions received i.p. injections of oxycodone for 9 days with increasing doses of 9, 17.8, 23.7 and 33 mg/kg (twice daily on days 1-8, with dose increasing every other day). The morning and afternoon doses were separated by 7 h. Mice in the vehicle condition (VEH) received injections of vehicle saline instead of oxycodone. One-hour-and-forty-five minutes after the morning injection on day 9, mice were administered their i.p. dose of CMPD1-2HCL (10 mg/kg at an injection volume of […]) or VEH. Fifteen minutes later they received an i.p. injection of 10 mg/kg naloxone (OXY groups) or saline (VEH groups) to precipitate withdrawal.
75 minutes after their naloxone or saline injection, mice were euthanised by sodium pentobarbitone overdose, and intracardiac puncture perfusion fixation was performed with 4% paraformaldehyde, and brains were then collected for immunohistochemical processing.
Data were analysed by SPSS using two-way ANOVA and planned contrasts.

C57BL/6 mice [6] = experiment: Open field locomotor activity test (Experiment 1.1); format: in vivo, mouse
Procedure: N=18 adult male C57BL/6 mice received either 0, 5 or 10 mg/kg CMPD1-2HCL (i.p.; n=6 per condition). Fifteen minutes after receiving their i.p. injection of CMPD1-2HCL mice were placed individually into a novel 40 (l)×40 (w)×40 (h) cm locomotor testing arena. Sessions were captured by overhead cameras and videos were analysed by using the automated behaviour tracking software CleverSys Topscan (CleverSys, Virginia, USA), which provided the distance travelled by each mouse in each 5 min time bin over the 60 minute locomotor testing session. Data were analysed by SPSS using mixed model ANOVA.

[7] = clinical trials; cited from earlier work

SMILES: Cl.Cl.Cn1ncc2c1Nc1ccccc1NC2 [CMPD1-2HCL]
- Oxycodone withdrawal-induced jumping vs OXY_VEH [1]: significantly inhibited
- Withdrawal-induced jumping, comparison of the two salt forms [1]: did not differ significantly
- Number of mice suffering from diarrhea ([2]; Fisher's exact test): inhibited
- Amount of fecal boli produced during the 30 min session ([2]; p<0.001 vs opioid withdrawal): significantly inhibited
- Proportion of mice suffering from diarrhea ([2]; OXY condition, n=10, OXY, VEH 90%, VEH, VEH 0%): 30%
- Jumping relative to mice not undergoing oxycodone withdrawal (VEH 0CMPD1) ([3]; 2.5, 5, 10 mg/kg i.p., p<0.001, p<0.001, p=0.011): still showed elevated jumping
- Oxycodone withdrawal-induced jumping vs OXCD 0CMPD1 ([3]; 2.5, 5, 10 mg/kg i.p., p=0.023, p=0.018, p<0.001): significantly inhibited
- Dysphoric and somatic symptoms (jumping and paw tremors) of oxycodone withdrawal ([3]; 2.5-10 mg/kg i.p., conclusion): dose dependently inhibited
- Paw tremors relative to mice not undergoing oxycodone withdrawal (VEH 0CMPD1) ([3]; 5 and 10 mg/kg i.p., p=0.204, p=0.4 (2.5 mg/kg p<0.01)): no longer had significantly elevated paw tremors
- Oxycodone withdrawal-induced paw tremors vs OXCD 0CMPD1 ([3]; highest dose 10 mg/kg i.p., p=0.033 (2.5 mg/kg p=0.898; 5 mg/kg p=0.083)): significantly inhibited
- Number of jumps for each mouse in the 30 min test session ([3]; 2.5 mg/kg i.p., 2.5 mg/kg): 86 and 52 and 58 and 50 (2×) and 31 and 92 and 68
- Total duration of paw tremors for each mouse in the 30 minute test session ([3]; 2.5 mg/kg i.p., 2.5 mg/kg): 12.4 s and 2.3 s and 78.4 s and 48 s and 27.1 s and 20.4 s and 0.2 s and 0.4 s
- Number of jumps for each mouse in the 30 min test session ([3]; 5 mg/kg i.p., 5 mg/kg): 51 and 35 and 61 and 48 (2×) and 30 and 136 and 67
- Total duration of paw tremors for each mouse in the 30 minute test session ([3]; 5 mg/kg i.p., 5 mg/kg): 8.2 seconds and 21.4 seconds and 3 seconds (2×) and 18.5 seconds and 2.1 seconds and 3.2 seconds and 17 seconds
- Number of jumps for each mouse in the 30 min test session ([3]; 10 mg/kg i.p., 10 mg/kg): 25 and 120 and 17 and 33 (2×) and 26 and 51 and 34
- Total duration of paw tremors for each mouse in the 30 minute test session ([3]; 10 mg/kg i.p., 10 mg/kg): 9.9 seconds and 0 seconds (3×) and 6 seconds and 21.5 seconds and 3.3 seconds and 9.6 seconds
- Distance travelled during time bin (C57BL/6 mice [4]): 3441.42 mm and 8422.46 mm and 11136.92 mm and 9156.71 mm and 2402.89 mm and 1364.63 mm
- Withdrawal induced neural activation (c-fos positive cells) [5]: significantly inhibited withdrawal induced neural activation
- Distance travelled during time bin (C57BL/6 mice [6]; 5 mg/kg i.p., time post dose 15-20 (5 min bin), individual mice 7-12): 15043.46 mm and 20271.67 mm and 23636.81 mm and 18238.34 mm and 16051.42 mm and 16442.58 mm
- Distance travelled during time bin (C57BL/6 mice [6]; 5 mg/kg i.p., time post dose 20-25, individual mice 7-12): 20386.17 mm and 13996.02 mm and 16449.1 mm and 11919.46 mm and 11756.3 mm and 10974.55 mm
- Distance travelled during time bin (C57BL/6 mice [6]; 5 mg/kg i.p., time post dose 25-30, individual mice 7-12): 11089.15 mm and 11425.88 mm and 11764.23 mm and 8462.92 mm and 10127.95 mm and 8553.13 mm
- Distance travelled during time bin (C57BL/6 mice [6]; 5 mg/kg i.p., time post dose 30-35, individual mice 7-12): 13221.16 mm and 7779.42 mm and 11134.18 mm and 8664.63 mm and 9823.55 mm and 4905.54 mm
- Distance travelled during time bin (C57BL/6 mice [6]; 5 mg/kg i.p., time post dose 35-40, individual mice 7-12): 15282.34 mm and 6791.58 mm and 8208.55 mm and 11776.57 mm and 10597.55 mm and 5280.25 mm
- Distance travelled during time bin (C57BL/6 mice [6]; 5 mg/kg i.p., time post dose 40-45, individual mice 7-12): 7068.09 mm and 9050.59 mm and 7493.64 mm and 9121.74 mm and 5308.25 mm and 6050.2 mm
- Distance travelled during time bin (C57BL/6 mice [6]; 5 mg/kg i.p., time post dose 45-50, individual mice 7-12): 5367.28 mm and 6712.87 mm and 5587.1 mm and 5518.04 mm and 9993.79 mm and 5466.54 mm
- Distance travelled during time bin (C57BL/6 mice [6]; 5 mg/kg i.p., time post dose 50-55, individual mice 7-12): 945.3 mm and 7073.77 mm and 10568.53 mm and 9463.89 mm and 5234.55 mm and 6665.74 mm
- Distance travelled during time bin (C57BL/6 mice [6]; 5 mg/kg i.p., time post dose 55-60, individual mice 7-12): 3362.81 mm and 8088.81 mm and 11051.63 mm and 11843.34 mm and 6386.55 mm and 4645.85 mm
- Distance travelled during time bin (C57BL/6 mice [6]; 5 mg/kg i.p., time post dose 60-65, individual mice 7-12): 6133.83 mm and 10365.45 mm and 10059.86 mm and 11154.54 mm and 8969.03 mm and 4893.44 mm
- Distance travelled during time bin (C57BL/6 mice [6]; 5 mg/kg i.p., time post dose 65-70, individual mice 7-12): 5268.88 mm and 4809.55 mm and 6121.25 mm and 4100.88 mm and 9397.98 mm and 4757.22 mm
- Effect on locomotor activity (distance travelled) (C57BL/6 mice [6]; 5 and 10 mg/kg i.p., main effect of dose p=0.392, time by dose interaction p=0.143): does not significantly impact locomotor activity; also recorded: does not supress locomotor activity
- Distance travelled during time bin (C57BL/6 mice [6]; Table 3, 5 mg/kg, i.p., time post dose 35-40, individual mice 13-18): 11756.13 mm and 8046.38 mm (2×) and 12860.87 mm and 13271.28 mm and 10054.85 mm
- Distance travelled during time bin (C57BL/6 mice [6]; Table 3, 5 mg/kg, i.p., time post dose 40-45, individual mice 13-18): 7682.41 mm and 2222.65 mm (2×) and 11152.11 mm and 12391.75 mm and 4683.51 mm
- Distance travelled during time bin (C57BL/6 mice [6]; Table 3, 5 mg/kg, i.p., time post dose 45-50, individual mice 13-18): 11290.93 mm and 6482.48 mm (2×) and 10743.61 mm and 12658.5 mm and 8082.58 mm
- Distance travelled during time bin (C57BL/6 mice [6]; Table 3, 5 mg/kg, i.p., time post dose 55-60, individual mice 13-18): 28970.94 mm and 12316.3 mm (2×) and 32680.43 mm and 27725.23 mm and 19894.04 mm
- Distance travelled during time bin (C57BL/6 mice [6]; Table 3, 5 mg/kg, i.p., time post dose 60-65, individual mice 13-18): 17509.3 mm and 10864.14 mm (2×) and 28788.31 mm

SMILES: Cn1ncc2c1Nc1ccccc1NC2.O=P(O)(O)O [CMPD1-PO4]
- Oxycodone withdrawal-induced jumping vs OXY_VEH [1]: significantly inhibited
- Withdrawal-induced jumping, comparison of the two salt forms [1]: did not differ significantly

SMILES: CC(Oc1c(Cl)cccc1Cl)C1=NCCN1 (stereo not drawn) [lofexidine]
- Improvements in acute opioid withdrawal symptoms and treatment retention [7]: only modest improvements
- Side effects [7]: hypotension, bradycardia and insomnia

Reference: patent US20220288060A1, “Treatment of Opioid Withdrawal” (Kinoxis Therapeutics Pty Ltd, priority 2019, published 2022)
